Reference: PubChem BioAssay (NCI)
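Grown in 96-well plates, cells were treated for 48 hours with each compound at five concentrations. Insufficient inhibition: endpoint recorded as highest concentration tested. The concentration for 50% growth inhibition is given as GI50. At the TGI there is no net growth.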

Columns and labels:
Assay in all cases: inhibition of tumour cell growth, NCI panel, 48 h
HCC-2998 colon = system: HCC-2998 colon
MALME-3M melanoma = system: MALME-3M melanoma
CCRF-CEM leukemia = system: CCRF-CEM leukemia
NCI-H226 lung = system: NCI-H226 lung
KM12 colon = system: KM12 colon
OVCAR-8 ovarian = system: OVCAR-8 ovarian
OVCAR-5 ovarian = system: OVCAR-5 ovarian
TK-10 renal = system: TK-10 renal
HOP-62 NSCLC = system: HOP-62 NSCLC
RPMI-8226 leukemia = system: RPMI-8226 leukemia
SNB-75 CNS = system: SNB-75 CNS
MDA-MB-231 breast = system: MDA-MB-231 breast
SW-620 colon = system: SW-620 colon
RXF 393 renal = system: RXF 393 renal
SN12C renal = system: SN12C renal
OVCAR-4 ovarian = system: OVCAR-4 ovarian
UO-31 renal = system: UO-31 renal
BT-549 breast = system: BT-549 breast
NCI-H522 lung = system: NCI-H522 lung
ACHN renal = system: ACHN renal
OVCAR-3 ovarian = system: OVCAR-3 ovarian
SK-MEL-5 melanoma = system: SK-MEL-5 melanoma
U251 CNS = system: U251 CNS
SF-539 CNS = system: SF-539 CNS
HOP-92 NSCLC = system: HOP-92 NSCLC
DU-145 prostate = system: DU-145 prostate
EKVX NSCLC = system: EKVX NSCLC
HCT-116 colon = system: HCT-116 colon
MCF7 breast = system: MCF7 breast
PC-3 prostate = system: PC-3 prostate
MOLT-4 leukemia = system: MOLT-4 leukemia
UACC-257 melanoma = system: UACC-257 melanoma
SF-295 CNS = system: SF-295 CNS
SK-MEL-2 melanoma = system: SK-MEL-2 melanoma
UACC-62 melanoma = system: UACC-62 melanoma
HL-60(TB) leukemia = system: HL-60(TB) leukemia
LOX IMVI melanoma = system: LOX IMVI melanoma
NCI/ADR-RES ovarian = system: NCI/ADR-RES ovarian
A498 renal = system: A498 renal
SK-OV-3 ovarian = system: SK-OV-3 ovarian
SK-MEL-28 melanoma = system: SK-MEL-28 melanoma
SNB-19 CNS = system: SNB-19 CNS
CAKI-1 renal = system: CAKI-1 renal
NCI-H23 lung = system: NCI-H23 lung
M14 melanoma = system: M14 melanoma
A549 NSCLC = system: A549 NSCLC
MDA-MB-435 = system: MDA-MB-435
HCT-15 colon = system: HCT-15 colon
IGROV1 ovarian = system: IGROV1 ovarian
HS 578T breast = system: HS 578T breast
MDA-MB-468 breast = system: MDA-MB-468 breast
SF-268 CNS = system: SF-268 CNS
786-0 renal = system: 786-0 renal
T-47D breast = system: T-47D breast
COLO 205 colon = system: COLO 205 colon

## COc1ccc(-c2nc3cc(C)ccc3n2CC(=O)N=Nc2c(O)[nH]c3ccc(OC)cc23)cc1
HCC-2998 colon
  GI50: 3.66 µM
  TGI: 13.2 µM
MALME-3M melanoma
  GI50: 1.94 µM
  TGI: 3.52 µM
CCRF-CEM leukemia
  GI50: 3.6 µM
  TGI: 13.3 µM
NCI-H226 lung
  GI50: 2 µM
  TGI: 4.31 µM
KM12 colon
  GI50: 1.85 µM
  TGI: 3.72 µM
OVCAR-8 ovarian
  GI50: 2.3 µM
  TGI: 5.89 µM
OVCAR-5 ovarian
  GI50: 2.43 µM
  TGI: 8.93 µM
TK-10 renal
  GI50: 3.13 µM
  TGI: 11.9 µM
HOP-62 NSCLC
  GI50: 2.52 µM
  TGI: 6.96 µM
RPMI-8226 leukemia
  GI50: 3.22 µM
  TGI: 14.9 µM
SNB-75 CNS
  GI50: 1.49 µM
  TGI: 3.35 µM
MDA-MB-231 breast
  GI50: 2.04 µM
  TGI: 4.68 µM
SW-620 colon
  GI50: 2.11 µM
  TGI: 5.1 µM
RXF 393 renal
  GI50: 1.48 µM
  TGI: 3.27 µM
SN12C renal
  GI50: 1.8 µM
  TGI: 4.08 µM
OVCAR-4 ovarian
  GI50: 1.84 µM
  TGI: 3.79 µM
UO-31 renal
  GI50: 11.2 µM
  TGI: 23.6 µM
BT-549 breast
  GI50: 1.88 µM
  TGI: 4.01 µM
NCI-H522 lung
  GI50: 3.71 µM
  TGI: 15.3 µM
ACHN renal
  GI50: 2.35 µM
  TGI: 6.23 µM
OVCAR-3 ovarian
  GI50: 1.87 µM
  TGI: 4.39 µM
SK-MEL-5 melanoma
  GI50: 1.64 µM
  TGI: 3.16 µM
U251 CNS
  GI50: 2.09 µM
  TGI: 4.24 µM
SF-539 CNS
  GI50: 1.62 µM
  TGI: 3 µM
HOP-92 NSCLC
  GI50: 1.83 µM
  TGI: 4.07 µM
DU-145 prostate
  GI50: 3.54 µM
  TGI: 14.7 µM
EKVX NSCLC
  GI50: 3.28 µM
  TGI: 12.5 µM
HCT-116 colon
  GI50: 1.74 µM
  TGI: 3.27 µM
MCF7 breast
  GI50: 2.01 µM
  TGI: 4.96 µM
PC-3 prostate
  GI50: 2.3 µM
  TGI: 6.65 µM
MOLT-4 leukemia
  GI50: 2.65 µM
  TGI: 8.57 µM
UACC-257 melanoma
  GI50: 2.38 µM
  TGI: 6.02 µM
SF-295 CNS
  GI50: 3.59 µM
  TGI: 13.7 µM
SK-MEL-2 melanoma
  GI50: 5.39 µM
  TGI: 19.7 µM
UACC-62 melanoma
  GI50: 1.84 µM
  TGI: 5.05 µM
HL-60(TB) leukemia
  GI50: 1.72 µM
  TGI: 5.22 µM
LOX IMVI melanoma
  GI50: 2.27 µM
  TGI: 5.81 µM
NCI/ADR-RES ovarian
  GI50: 2.34 µM
  TGI: 5.52 µM
A498 renal
  GI50: 11.2 µM
  TGI: 24.6 µM
SK-OV-3 ovarian
  GI50: 4.32 µM
  TGI: 15.6 µM
SK-MEL-28 melanoma
  GI50: 1.73 µM
  TGI: 3.19 µM
SNB-19 CNS
  GI50: 4.3 µM
  TGI: 16.1 µM
CAKI-1 renal
  GI50: 1.93 µM
  TGI: 5.45 µM
NCI-H23 lung
  GI50: 2.48 µM
  TGI: 6.88 µM
M14 melanoma
  GI50: 1.8 µM
  TGI: 3.38 µM
A549 NSCLC
  GI50: 1.99 µM
  TGI: 4.43 µM
MDA-MB-435
  GI50: 1.88 µM
  TGI: 3.76 µM
HCT-15 colon
  GI50: 2.56 µM
  TGI: 7.51 µM
IGROV1 ovarian
  GI50: 6.83 µM
  TGI: 19.8 µM
HS 578T breast
  GI50: 2.02 µM
  TGI: 5.15 µM
MDA-MB-468 breast
  GI50: 2.05 µM
  TGI: 4.41 µM
SF-268 CNS
  GI50: 2.43 µM
  TGI: 8.3 µM
786-0 renal
  GI50: 3.37 µM
  TGI: 11.7 µM
T-47D breast
  GI50: 2.43 µM
  TGI: 6.5 µM
COLO 205 colon
  GI50: 2.62 µM
  TGI: 7.93 µM
